Measured values reported in patent US20110038948A1, “Methods of Reducing the Production of Reactive Oxygen Species and Methods of Screening or Identifying Compounds and Compositions that Reduce the Production of Reactive Oxygen Species” (UNIVERSITY OF TENNESSEE RESEARCH FOUNDATION, priority 2005, published 2011).

Columns and labels:
Type in all cases: cell-based, mouse
[1] = tested on: 3T3-L1 adipocytes; assay: Intracellular ROS generation in cultured adipocytes (H2-DCFDA); details: α-tocopherol 1 μmol/L added, all groups
Protocol: 3T3-L1 preadipocytes were incubated at a density of 8000 cells/cm^2 (10 cm^2 dish) and grown in Dulbecco's modified Eagle's medium (DMEM) containing 10% FBS and antibiotics (adipocyte medium) at 37° C. in 5% CO2 in air. Confluent preadipocytes were induced to differentiate with a standard differentiation medium consisting of DMEM-F10 (1:1, vol/vol) medium supplemented with 1% FBS, 1 μM dexamethasone, IBMX (0.5 mM) and antibiotics (1% Penicillin-Streptomycin). Preadipocytes were maintained in this differentiation medium for 3 days and subsequently cultured in adipocyte medium. Cultures were re-fed every 2-3 days to allow 90% of cells to reach full differentiation before conducting chemical treatment. Chemicals were freshly diluted in adipocyte medium before treatment. Cells were washed with fresh adipocyte medium, re-fed with medium containing the different treatments, and incubated at 37° C. in 5% CO2 in air before analysis. Cell viability was measured via trypan blue exclusion. […] Cells were loaded with H2-DCFDA (2 μmol/L) 30 minute before the end of the incubation period (48 h). After washing twice with PBS, cells were scraped and disrupted by sonication on ice (20 s). Fluorescence (emission 543 nm or 527 nm) and DNA content were then measured as described previously. The intensity of fluorescence was expressed as arbitrary units per ng DNA.

[2] = tested on: 3T3-L1 adipocytes; assay: Intracellular Ca2+ in cultured adipocytes (fura-2)
Protocol: 3T3-L1 preadipocytes were incubated at a density of 8000 cells/cm^2 (10 cm^2 dish) and grown in Dulbecco's modified Eagle's medium (DMEM) containing 10% FBS and antibiotics (adipocyte medium) at 37° C. in 5% CO2 in air. Confluent preadipocytes were induced to differentiate with a standard differentiation medium consisting of DMEM-F10 (1:1, vol/vol) medium supplemented with 1% FBS, 1 μM dexamethasone, IBMX (0.5 mM) and antibiotics (1% Penicillin-Streptomycin). Preadipocytes were maintained in this differentiation medium for 3 days and subsequently cultured in adipocyte medium. Cultures were re-fed every 2-3 days to allow 90% of cells to reach full differentiation before conducting chemical treatment. Chemicals were freshly diluted in adipocyte medium before treatment. Cells were washed with fresh adipocyte medium, re-fed with medium containing the different treatments, and incubated at 37° C. in 5% CO2 in air before analysis. Cell viability was measured via trypan blue exclusion. [Ca^2+]i in adipocytes was measured using a fura-2 dual-wavelength fluorescence imaging system. Cells were plated in 35-mm dishes […]). […] Cells were loaded with fura-2 acetoxymethyl ester (fura-2 AM) (10 μmol/L) in the same buffer for 2 h at 37° C. in a dark incubator with 5% CO2. To remove extracellular dye, cells were rinsed with HBSS three times and then post-incubated at room temperature for an additional 1 h for complete hydrolysis of cytoplasmic fura-2 AM. The dishes with dye-loaded cells were mounted on the stage of Nikon TMS-F fluorescence inverted microscope with a Cohu model 4915 charge-coupled device (CCD) camera. Fluorescent images were captured alternatively at excitation wavelengths of 340 and 380 nm with an emission wavelength of 520 nm. After establishment of a stable baseline, the responses to 1α, 25-(OH)2-D3 was determined. [Ca^2+]i was calculated using a ratio equation as described previously. Each analysis evaluated responses of 5 representative whole cells. Images were analyzed with […]2 version 4.62 imaging software (Intracellular Imaging, Cincinnati, Ohio). […]

[3] = tested on: 3T3-L1 adipocytes; assay: Cell proliferation / DNA synthesis in cultured adipocytes (CyQUANT)
Protocol: 3T3-L1 preadipocytes were incubated at a density of 8000 cells/cm^2 (10 cm^2 dish) and grown in Dulbecco's modified Eagle's medium (DMEM) containing 10% FBS and antibiotics (adipocyte medium) at 37° C. in 5% CO2 in air. Confluent preadipocytes were induced to differentiate with a standard differentiation medium consisting of DMEM-F10 (1:1, vol/vol) medium supplemented with 1% FBS, 1 μM dexamethasone, IBMX (0.5 mM) and antibiotics (1% Penicillin-Streptomycin). Preadipocytes were maintained in this differentiation medium for 3 days and subsequently cultured in adipocyte medium. Cultures were re-fed every 2-3 days to allow 90% of cells to reach full differentiation before conducting chemical treatment. Chemicals were freshly diluted in adipocyte medium before treatment. Cells were washed with fresh adipocyte medium, re-fed with medium containing the different treatments, and incubated at 37° C. in 5% CO2 in air before analysis. Cell viability was measured via trypan blue exclusion. Cells were plated in DMEM with different treatment in duplicate in 96-well plates. After 48 h, a CyQUANT Cell Proliferation Kit (Molecular Probes, Eugene, Oreg.) was used following the manufacturer's protocol. a microplate fluorometer (Packard Instrument Company, Inc., Downers Grove, Ill.) was used to measure CyQUANT fluorescence. Cell viability was determined by Trypan blue exclusion examination.

[4] = tested on: adiponectin; assay: Adiponectin expression in 3T3-L1 adipocytes; details: 48 h
Protocol: (§1) 3T3-L1 pre-adipocytes were incubated at a density of 8000 cells/cm^2 (10 cm^2 dish) and grown in Dulbecco's modified Eagle's medium (DMEM) containing 10% FBS and antibiotics (adipocyte medium) at 37° C. in 5% CO2 in air. Confluent pre-adipocytes were induced to differentiate with a standard differentiation medium consisting of DMEM-F10 (1:1, vol/vol) medium supplemented with 1% fetal bovine serum (FBS), 1 μM dexamethasone, isobutylmethylxanthine (IBMX) (0.5 mM) and antibiotics (1% Penicillin-Streptomycin). Pre-adipocytes were maintained in this differentiation medium for 3 days and subsequently cultured in adipocyte medium. Cultures were re-fed every 2-3 days to allow 90% cells to reach fully differentiation before conducting chemical treatment. […] Cell viability was measured via trypan blue exclusion. Adipocyte and muscle 18s, TNFα, IL-6, IL-8, IL-15 and adiponectin were quantitatively measured using a smart cycler real-time PCR system (Cepheid, Sunnyvale, Calif.) with a TaqMan 1000 Core Reagent Kit (Applied Biosystems, Branchburg, N.J.). […] Reactions of quantitative RT-PCR for standards and unknown samples were also performed according to the instructions of Smart Cycler System (Cepheid, Sunnyvale, Calif.) and TaqMan Real Time PCR Core Kit (Applied Biosystems, Branchburg, N.J.). The mRNA quantitation for each sample was further normalized using the corresponding 18s quantitation.

[5] = tested on: IL-15; assay: IL-15 expression in 3T3-L1 adipocytes; details: 1 μmol/L α±tocopherol added to 100 nmol/L H2O2, 48 h; P=0.043
Protocol: as §1

Cc1c(C)c2c(c(C)c1O)CC[C@@](C)(CCC[C@H](C)CCC[C@H](C)CCCC(C)C)O2 [α-tocopherol]
effect on ROS production [1]: inhibited
effect on H2O2 induced increase in [Ca2+]i ([2]; α-tocopherol 1 μmol/L plus H2O2, 4 hours): reversed
effect on glucose induced increase in [Ca2+]i ([2]; α-tocopherol 1 μmol/L plus glucose 30 mmol/L, 4 hours): partially blocked
effect on DNA synthesis ([3]; α-tocopherol 1 μmol/L added, all groups): inhibited
effect on H2O2 induced DNA synthesis ([3]; α-tocopherol 1 μmol/L or nifedipine 10 μmol/L plus H2O2, 48 hours): completely blocked
effect on adiponectin production [4]: increased
increase in IL-15 as compared to H2O2-treated cells [5]: 2.2 fold
